# According to patent publication US20250170248A1, “SMARCA DEGRADERS AND USES THEREOF” (Kymera Therapeutics, Inc., priority 2021, published 2025):
# What was measured:
# Assay type in all cases: cell-based
# SMARCA2 [1] = target: T1, SMARCA2 (Homo sapiens, UniProt P51531); test: MSD SMARCA2 degradation in A549 cell line; details: for Dmax: A549, A549 cells; for Dmax / DC50: 24 h; for DC50 / SMARCA2 MSD A549 degradation 24 h: Average Dmax %: A549 cells; for DC50: read-out: SMARCA2 MSD A549 degradation 24 h: Average external-Abs DC50
# Summary of the method: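 SMARCA2 protein remaining after 24 h exposure of A549 cells (top concentration 1000 nM, 3-fold dilutions) was measured by MSD electrochemiluminescence immunoassay of cell lysates. Results are given as binned DC50 and maximal degradation (Dmax) codes.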
# SMARCA4 = target: T2, SMARCA4 (Homo sapiens, UniProt P51532); test: SMARCA4 Western blot degradation in MV4-11 cells; details: for Dmax: MV4-11, MV4-11 cells, read-out: SMARCA4 MSD MV411 degradation 24 h: average Dmax %; for Dmax / DC50: 24 h; for DC50 / SMARCA4 MSD MV411 degradation 24 h: average Dmax %: MV4-11 cells; for DC50: read-out: SMARCA4 MSD MV411 degradation 24 h: Mean external-Abs DC50
# T2 construct: SMARCA2/SMARCA4 protein degradation selectivity in MV4-11 cells; endogenous in cells; host or cells: MV4-11
# Summary of the method: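 Protein levels quantified by LI-COR Western blot (beta-actin loading control) in RIPA lysates of MV4-11 cells after 24 h compound exposure. Degradation reported as DC50, Dmax % at 24 h and SMARCA2 vs SMARCA4 selectivity, each binned into letter codes.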
# SMARCA2 [2] = target: T1, SMARCA2; test: SMARCA2 Western blot degradation in MV4-11 cells; parameters: SMARCA2/SMARCA4 protein degradation selectivity in MV4-11 cells; endogenous in cells; host or cells: MV4-11; details: for Dmax: MV4-11, MV4-11 cells, read-out: SMARCA2 MSD MV411 degradation 24 h: average Dmax %; for Dmax / DC50 / SMARCA2 MSD MV411 degradation 24 h: average Dmax %: 24 h; for DC50 / Selectivity in MV411 / SMARCA2 MSD MV411 degradation 24 h: average Dmax %: MV4-11 cells; for DC50: read-out: SMARCA2 MSD MV411 degradation 24 h: Mean external-Abs DC50; for Selectivity in MV411: SMARCA2/4 selectivity
# T2 sequence (P51532 whole entry): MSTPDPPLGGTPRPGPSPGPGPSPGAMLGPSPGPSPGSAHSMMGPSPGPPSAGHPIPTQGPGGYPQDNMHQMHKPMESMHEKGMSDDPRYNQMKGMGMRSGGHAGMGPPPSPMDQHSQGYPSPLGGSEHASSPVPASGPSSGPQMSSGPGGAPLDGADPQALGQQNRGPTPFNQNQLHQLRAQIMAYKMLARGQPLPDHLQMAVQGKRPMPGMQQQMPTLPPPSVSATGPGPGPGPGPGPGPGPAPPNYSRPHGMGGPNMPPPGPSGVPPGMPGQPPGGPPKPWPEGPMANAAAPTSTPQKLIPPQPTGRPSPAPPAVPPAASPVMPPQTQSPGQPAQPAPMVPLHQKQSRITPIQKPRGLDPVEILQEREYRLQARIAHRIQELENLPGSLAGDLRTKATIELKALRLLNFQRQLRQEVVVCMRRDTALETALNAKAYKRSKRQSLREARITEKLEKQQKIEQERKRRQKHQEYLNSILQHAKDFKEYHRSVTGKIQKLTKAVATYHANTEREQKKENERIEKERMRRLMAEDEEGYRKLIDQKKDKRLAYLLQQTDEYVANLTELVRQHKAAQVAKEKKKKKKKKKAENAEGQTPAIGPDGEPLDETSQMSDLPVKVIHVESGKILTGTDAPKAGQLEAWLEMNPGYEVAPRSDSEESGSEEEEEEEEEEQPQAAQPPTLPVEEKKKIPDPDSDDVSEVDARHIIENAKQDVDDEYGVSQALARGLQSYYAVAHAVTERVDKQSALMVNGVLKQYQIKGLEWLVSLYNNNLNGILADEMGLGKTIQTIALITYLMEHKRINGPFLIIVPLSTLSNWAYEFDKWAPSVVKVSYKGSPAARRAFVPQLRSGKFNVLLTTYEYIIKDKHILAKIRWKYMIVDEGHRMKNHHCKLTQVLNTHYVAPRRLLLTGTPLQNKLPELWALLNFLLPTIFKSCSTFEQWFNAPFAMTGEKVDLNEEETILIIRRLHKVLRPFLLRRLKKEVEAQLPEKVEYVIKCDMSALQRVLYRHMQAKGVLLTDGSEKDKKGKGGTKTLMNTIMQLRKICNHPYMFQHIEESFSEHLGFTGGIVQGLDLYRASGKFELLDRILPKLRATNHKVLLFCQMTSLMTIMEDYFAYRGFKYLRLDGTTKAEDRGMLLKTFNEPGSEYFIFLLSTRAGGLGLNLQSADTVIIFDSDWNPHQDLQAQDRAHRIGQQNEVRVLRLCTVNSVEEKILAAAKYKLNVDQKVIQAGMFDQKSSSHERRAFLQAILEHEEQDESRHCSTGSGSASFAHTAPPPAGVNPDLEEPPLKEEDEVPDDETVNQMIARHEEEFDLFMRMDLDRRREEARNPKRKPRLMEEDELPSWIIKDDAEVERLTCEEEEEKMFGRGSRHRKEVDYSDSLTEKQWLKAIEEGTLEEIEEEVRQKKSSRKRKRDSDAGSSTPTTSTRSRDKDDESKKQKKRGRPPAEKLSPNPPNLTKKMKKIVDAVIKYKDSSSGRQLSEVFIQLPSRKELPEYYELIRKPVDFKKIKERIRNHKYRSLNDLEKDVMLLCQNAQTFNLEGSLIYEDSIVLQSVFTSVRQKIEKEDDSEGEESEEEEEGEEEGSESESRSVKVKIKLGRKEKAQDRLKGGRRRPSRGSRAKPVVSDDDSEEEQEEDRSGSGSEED
# T1 sequence (P51531 whole entry): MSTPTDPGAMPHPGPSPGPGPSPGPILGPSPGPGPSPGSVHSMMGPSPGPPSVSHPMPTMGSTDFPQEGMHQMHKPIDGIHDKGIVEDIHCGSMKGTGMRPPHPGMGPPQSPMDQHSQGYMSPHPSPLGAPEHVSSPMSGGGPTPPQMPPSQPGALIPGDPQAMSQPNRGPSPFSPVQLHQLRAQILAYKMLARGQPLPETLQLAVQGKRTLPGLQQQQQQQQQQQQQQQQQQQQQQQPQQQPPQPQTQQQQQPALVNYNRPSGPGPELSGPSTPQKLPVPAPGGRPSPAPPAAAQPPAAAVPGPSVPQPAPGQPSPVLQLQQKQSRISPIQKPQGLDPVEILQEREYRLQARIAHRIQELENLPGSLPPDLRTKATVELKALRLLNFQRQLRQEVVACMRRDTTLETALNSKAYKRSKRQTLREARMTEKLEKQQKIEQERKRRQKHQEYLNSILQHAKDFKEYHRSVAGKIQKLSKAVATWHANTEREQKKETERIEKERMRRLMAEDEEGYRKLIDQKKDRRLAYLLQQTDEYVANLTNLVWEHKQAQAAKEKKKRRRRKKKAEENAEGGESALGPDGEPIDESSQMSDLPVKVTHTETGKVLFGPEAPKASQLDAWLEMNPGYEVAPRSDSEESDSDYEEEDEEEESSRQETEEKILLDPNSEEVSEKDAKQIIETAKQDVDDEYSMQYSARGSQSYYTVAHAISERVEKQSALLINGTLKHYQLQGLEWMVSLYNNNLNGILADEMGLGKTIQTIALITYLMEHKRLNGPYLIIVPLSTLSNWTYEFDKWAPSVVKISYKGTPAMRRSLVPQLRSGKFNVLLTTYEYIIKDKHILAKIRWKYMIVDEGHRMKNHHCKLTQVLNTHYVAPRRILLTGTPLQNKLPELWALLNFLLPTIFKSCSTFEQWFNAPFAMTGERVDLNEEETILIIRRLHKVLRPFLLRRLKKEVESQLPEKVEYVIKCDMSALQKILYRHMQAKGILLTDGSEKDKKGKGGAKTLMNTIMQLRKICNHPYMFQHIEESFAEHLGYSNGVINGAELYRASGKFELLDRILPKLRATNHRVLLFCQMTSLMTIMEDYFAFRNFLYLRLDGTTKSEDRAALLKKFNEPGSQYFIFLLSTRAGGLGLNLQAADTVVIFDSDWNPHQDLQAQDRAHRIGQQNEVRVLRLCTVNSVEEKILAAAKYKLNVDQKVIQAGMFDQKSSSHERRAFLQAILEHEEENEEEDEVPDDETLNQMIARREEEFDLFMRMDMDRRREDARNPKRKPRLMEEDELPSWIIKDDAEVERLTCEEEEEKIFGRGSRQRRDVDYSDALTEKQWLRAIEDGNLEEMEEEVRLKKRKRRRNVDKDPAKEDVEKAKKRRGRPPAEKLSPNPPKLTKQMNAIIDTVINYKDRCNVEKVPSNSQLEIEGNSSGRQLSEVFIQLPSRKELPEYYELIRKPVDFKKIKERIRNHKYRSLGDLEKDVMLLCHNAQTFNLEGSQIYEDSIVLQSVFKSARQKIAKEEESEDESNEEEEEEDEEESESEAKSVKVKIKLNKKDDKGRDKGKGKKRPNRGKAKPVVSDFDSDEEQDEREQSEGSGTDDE
SMILES,Dmax (SMARCA2 [1]) [%],DC50 (SMARCA2 [1]) [nM],Dmax (SMARCA4) [%],DC50 (SMARCA4) [nM],Dmax (SMARCA2 [2]) [%],DC50 (SMARCA2 [2]) [nM],Selectivity in MV411 (SMARCA2 [2]),SMARCA2 MSD A549 degradation 24 h: Average Dmax % (SMARCA2 [1]),SMARCA4 MSD MV411 degradation 24 h: average Dmax % (SMARCA4),SMARCA2 MSD MV411 degradation 24 h: average Dmax % (SMARCA2 [2])
"C#Cc1ccc(CNC(=O)[C@@H]2C[C@@H](O)CN2C(=O)[C@@H](NC(=O)CN2CCC(N3CC4(CC(N5CCN6c7cc(-c8ccccc8O)nnc7NC[C@H]6C5)C4)C3)CC2)C(C)(C)C)cc1 [I-252, (2S,4R)—N-(4-ethynylbenzyl)-4-hydroxy-1-((S)-2-(2-(4-(6-((S)-2-(2-hydroxyphenyl)-6a,7,9,10-tetrahydro-5H-pyrazino[1′,2′:4,5]pyrazino[2,3-c]pyridazin-8(6H)-yl)-2-azaspiro[3.3]heptan-2-yl)piperidin-1-yl)acetamido)-3,3-dimethylbutanoyl)pyrrolidine-2-carboxamide]",> 90,50 to 100,> 90,1 to 10,> 90,< 1,D (D (<10 fold)),,,
C#Cc1ccc(CNC(=O)[C@@H]2C[C@@H](O)CN2C(=O)[C@@H](NC(=O)N2CC3(CC(N4CCC(c5cnc(N6CCc7[nH]c8nnc(-c9ccccc9O)cc8c7[C@H]6C)nc5)CC4)C3)C2)C(C)(C)C)c(OC)c1 [I-119],> 90,< 10,> 90,10 to 100,> 90,1 to 10,C (C (10-100 fold)),,,
C#Cc1ccc(CNC(=O)[C@@H]2C[C@@H](O)CN2C(=O)[C@@H](NC(=O)N2CC3(CC(N4CCC(c5cnc(N6CCc7[nH]c8nnc(-c9ccccc9O)cc8c7[C@H]6C)nc5)CC4)C3)C2)C(C)(C)C)cc1OC [I-319],> 90,10 to 50,50 to 70,> 100,70 to 90,1 to 10,B (B (>100-500 fold)),,,
"Cc1ncsc1-c1ccc(CNC(=O)[C@@H]2C[C@@H](O)CN2C(=O)[C@@H](NC(=O)C2(F)CC2)C(C)(C)C)c(O[C@H]2CC[C@@H](N3CCC(c4cnc(N5CCc6[nH]c7nnc(-c8ccccc8O)cc7c6[C@H]5C)nc4)CC3)CC2)c1 (single isomer, unassigned) [I-31]",> 90,50 to 100,50 to 70,> 100,70 to 90,10 to 100,B (B (>100-500 fold)),,,
"C#Cc1ccc([C@H](C)NC(=O)[C@@H]2C[C@@H](O)CN2C(=O)[C@H](c2cc(OCCN3CCN4c5cc(-c6ccccc6O)nnc5NC[C@H]4C3)no2)C(C)C)cc1 (single isomer, unassigned) [I-272]",50 to 70,> 100,< 50,> 100,50 to 70,> 100,C (C (10-100 fold)),,,
C#Cc1ccc(CNC(=O)[C@@H]2C[C@@H](O)CN2C(=O)[C@@H](OC(=O)N2CC3(CC(N4CCC(c5cnc(N6CCc7[nH]c8nnc(-c9ccccc9O)cc8c7[C@H]6C)nc5)CC4)C3)C2)C(C)(C)C)cc1 [I-138],> 90,< 10,> 90,10 to 100,> 90,1 to 10,C (C (10-100 fold)),,,
CC#Cc1ccc(CNC(=O)[C@@H]2C[C@@H](O)CN2C(=O)[C@@H](NC(=O)N2CC3(CC(N4CCC(c5cnc(N6CCc7[nH]c8nnc(-c9ccccc9O)cc8c7[C@H]6C)nc5)CC4)C3)C2)C(C)(C)C)cc1 [I-121],> 90,50 to 100,< 50,> 100,50 to 70,10 to 100,B (B (>100-500 fold)),,,
"Cc1ncsc1-c1ccc(CNC(=O)[C@@H]2C[C@@H](O)CN2C(=O)[C@@H](NC(=O)[C@H]2CC3(C2)C[C@H](N2CCC(N4CCC(c5ccc6[nH]c7nnc(-c8ccccc8O)cc7c6c5)CC4)CC2)C3)C(C)(C)C)cc1 (single isomer, unassigned) [I-29]",,> 100,,> 100,,10 to 100,B (B (>100-500 fold)),C (C (50-70% degradation)),D (D (<50% degradation)),C (C (50-70% degradation))
"C#Cc1ccc(CNC(=O)[C@@H]2C[C@@H](O)CN2C(=O)[C@@H](NC(=O)[C@H]2CCC3(CC2)C[C@H](N2CCC(N4CCC(N5CCN6c7cc(-c8ccccc8O)nnc7NC[C@H]6C5)CC4)CC2)C3)C(C)(C)C)cc1 (single isomer, unassigned) [I-174]",> 90,> 100,< 50,> 100,70 to 90,10 to 100,B (B (>100-500 fold)),,,
C#Cc1ccc([C@H](C)NC(=O)[C@@H]2C[C@@H](O)CN2C(=O)[C@@H](NC(=O)N2CC3(CC(N4CCC(c5cnc(N6CCc7[nH]c8nnc(-c9ccccc9O)cc8c7[C@H]6CO)nc5)CC4)C3)C2)C(C)(C)C)cc1 [I-321],> 90,10 to 50,< 50,> 100,70 to 90,1 to 10,A (A (>500 fold)),,,
Cc1ncsc1-c1ccc(CNC(=O)[C@@H]2C[C@@H](O)CN2C(=O)[C@@H](NC(=O)[C@H]2CC3(C2)C[C@H](N2CCN(c4cnc(N5CCN6c7cc(-c8ccccc8O)nnc7NC[C@H]6C5)nc4)CC2)C3)C(C)(C)C)cc1 (some centres unmarked) [I-18],,,< 50,10 to 100,,10 to 100,C (C (10-100 fold)),D (D (<50% degradation)),,D (D (<50% degradation))
C#Cc1ccc(CNC(=O)[C@@H]2C[C@@H](O)CN2C(=O)[C@@H](NC(=O)CCCCCCCN2CCC(N3CC4(CC(N5CCN6c7cc(-c8ccccc8O)nnc7NC[C@H]6C5)C4)C3)CC2)C(C)(C)C)cc1 [I-243],> 90,50 to 100,< 50,> 100,70 to 90,1 to 10,B (B (>100-500 fold)),,,
"C#Cc1ccc(CNC(=O)[C@@H]2C[C@@H](O)CN2C(=O)[C@@H](NC(=O)[C@H]2CCC3(CC2)C[C@H](N2CCN(c4cnc(N5CCN6c7cc(-c8ccccc8O)nnc7NC[C@H]6C5)nc4)CC2)C3)C(C)(C)CCO)c(Cl)c1 (single isomer, unassigned) [I-312]",,10 to 50,,> 100,,10 to 100,B (B (>100-500 fold)),A (A (>90% degradation)),D (D (<50% degradation)),B (B (>70-90% degradation))
"Cc1ncsc1-c1ccc([C@H](C)NC(=O)[C@@H]2C[C@@H](O)CN2C(=O)[C@@H](NC(=O)Cc2ccc(CCCC(=O)N3CCN4c5cc(-c6ccccc6O)nnc5NC[C@H]4C3)cc2)C(C)(C)C)cc1 (single isomer, unassigned) [I-83]",70 to 90,50 to 100,> 90,10 to 100,> 90,1 to 10,C (C (10-100 fold)),,,
C#Cc1ccc(CNC(=O)[C@@H]2C[C@@H](O)CN2C(=O)[C@@H](NC(=O)c2ccc(N3CCC(N4CCC(N5CCN6c7cc(-c8ccccc8O)nnc7NC[C@H]6C5)CC4)CC3)cn2)C(C)(C)C)cc1 [I-292],> 90,< 10,> 90,10 to 100,> 90,1 to 10,C (C (10-100 fold)),,,
Cc1ncsc1-c1ccc(CNC(=O)[C@@H]2C[C@@H](O)CN2C(=O)[C@@H](NC(=O)N2CC3(CCC(N4CCC(c5cnc(N6CCc7[nH]c8nnc(-c9ccccc9O)cc8c7C6C)nc5)CC4)CC3)C2)C(C)(C)C)cc1 (some centres unmarked) [I-62],70 to 90,> 100,< 50,> 100,< 50,> 100,C (C (10-100 fold)),,,
C#Cc1ccc(CNC(=O)[C@@H]2C[C@@H](O)CN2C(=O)[C@@H](NC(=O)N2CC3(CC(N4CCC(N5CCc6[nH]c7nnc(-c8ccccc8O)cc7c6[C@H]5C)CC4)C3)C2)C(C)(C)C)cc1 [I-191],> 90,> 100,70 to 90,> 100,70 to 90,1 to 10,C (C (10-100 fold)),,,
C#Cc1ccc(CNC(=O)[C@@H]2C[C@@H](O)CN2C(=O)[C@@H](NC(=O)N2CC3(CC(N4CCC(c5cnc(N6CCc7[nH]c8nnc(-c9ccccc9O)cc8c7[C@H]6CO)nc5)CC4)C3)C2)C(C)(C)C)cc1 [I-146],> 90,< 10,70 to 90,10 to 100,> 90,1 to 10,C (C (10-100 fold)),,,
